Results from patent US7662767B2, “Polynucleotide intercalator interceptors and inhibitors” (Materials Evolution and Development USA, Inc., priority 2000, dated 2010).

Key:
[1] = Fluorescence of 2 μM acridine orange solution with NaCl, caffeine and/or dsDNA
Protocol: The addition of salt could possibly affect the Kassoc values of AO and the other reactants by modifying the charge on the reactants and/or decreasing the influence of water molecules. To minimize AO self-association, i.e. dimerization, a relatively low concentration of AO [2 μM] may be used. The interaction between reactants was analyzed by spectrofluorometric methods at λex 485 nm and monitored at λem 530 nm (green).
Solutions of 2 μM AO alone and in various combinations with 150 mM NaCl, 5 mM CAF, 2 mM DNA were studied. Table 3-2 summarizes the results and the statistical analysis for differences between means.
In Table 3-2, fluorescence (λex=485 nm and λem=530 nm) was measured for AO [2 μM] in the absence of, and in the presence of, NaCl [150 mM], caffeine [5 mM], and DNA [2 mM] alone or in combination. Significant differences were found by one-way ANOVA (p≦0.05). […] It is noted that n=3 unless denoted by an * which indicates n=4.
Spectrofluorometric analyses at λex 485 nm and λem 530 nm were performed on solutions of 2:M AO in combination with 5 mM CAF and 2 mM dsDNA, with and without 150 mM NaCl. […] Note that CAF had no significant effect on the fluorescence of the AO solution when in the presence of NaCl (SNK letter designation “B”).

[2] = system: chicken erythrocyte nuclear chromatin; assay: Blocking of acridine orange intercalation into chicken erythrocyte nuclear chromatin, fluorescence microscopy; design: key: 0: no blocking effect; 1: slight blocking; 2: moderate blocking; 3: almost total blocking (very slight green fluorescence detectable); 4: complete blockage (no green fluorescence detectable); settings: 10 μM AO
Protocol: Microscope slides coated with chicken erythrocyte were stained with 10 μM AO at three separate areas on the microscope slide as described above. Slides were exposed to […] different xanthies at four different molar ratios for three different periods of time. The xanthines, theophylline, caffeine, 1,3,7,9-tetramethyl uric acid, and aminophylline, were prepared with 10 μM AO at molar ratios of 50:1, 500:1, 2500:1, 5000:1 xanthine to AO in distilled water. Microscope slides coated with chicken erythrocytes were exposed to a mixture of xanthine/AO at each molar ratio for periods of 10 min, 1 min, and 10 seconds under static (non-agitated) conditions. […] Following exposure to the xanthine/AO or to the DNA/AO solutions, the slides were rinsed in distilled water, allowed to dry at room temperature, examined by fluorescence microscopy, and the color of the nuclei recorded. Results were recorded as follows: 0=no blocking effect; 1=slight blocking; 2=moderate blocking; 3=almost total blocking (very slight green fluorescence detectable); 4=complete blockage (no green fluorescence detectable).
In the implementation shown in Table 4-2, the relative intensity of the green fluorescent color ([…]) utilizing a red blocking filter (≧600 nm) was used as the indicator of the intensity of staining. The molar ratio is expressed as the ratio of xanthine concentration to 10 μM AO. Results were recorded as follows: 0=no blocking effect; 1=slight blocking; 2=moderate blocking; 3=almost total blocking (very slight green fluorescence detectable); 4=complete blockage (no green fluorescence detectable). *Kassoc values for the xanthines are taken from Table 2-1 and the Kassoc values for DNA were taken from Table 3-2.

[3] = system: chicken erythrocyte nuclear chromatin; assay: Removal of acridine orange from stained chicken erythrocyte nuclear chromatin by xanthine rinse, fluorescence microscopy; settings: for Nuclear color, Stain: before xanthine rinse; for Nuclear color, Re-stain: re-stained after xanthine rinse; for Nuclear color, After Rinse: xanthine rinse 50 mM, 1 hour, static
Protocol: Experiments were conducted to determine whether xanthines with known binding affinities to AO could compete with nuclear DNA for binding to AO and, therefore, be able to remove AO from its intercalation position within nuclear chromatin. Fluorescence microscopy was used to observe the fluorescent color produced by the AO-DNA complex following the staining of chicken erythrocyte nuclear chromatin with AO at both 5 μM and 5 mM.
Microscope slides smeared with chicken erythrocytes were stained with either 5 μM or 5 mM AO for a period of 30 minutes followed by three 10 second rinses in distilled water before drying at room temperature. Slides were then examined by fluorescence microscopy using a, Zeiss Model 63 Microscope with a xenon source fluorescent emitter. In some instances, a blocking filter was used to filter out fluorescence emission in the red and higher wavelengths. Photomicrographs were taken with Kodak Gold 35 mm ASA 1600 speed film, developed and color prints made. Comparative photomicrographs were taken at the same magnification and at the same exposure time. Selected photomicrographs were digitally scanned (Hewitt-Packard, Model 4L Scanner, Palo Alto, Calif.) and stored on 100 MB ZIP cartridges.
Slides were again examined by fluorescence microscopy and fluorescence color of the nuclei recorded. Slides were again stained with 5 mM AO then re-examined by fluorescence microscopy and fluorescence color of the nuclei recorded.
In the example shown in Table 4-3, the chicken erythrocytes were smeared and dried on a microscope slide prior to exposure to the AO solution for 30 minutes followed by water rinses to remove excess AO. Following drying, each slide was observed under fluorescence microscopy then placed in one of the xanthine solutions (50 ml volume) for 1 hour under static conditions, rinsed with water, then dried prior to being observed by fluorescence microscopy without a red blocking filter. Finally, each slide was restained following the initial staining procedures and again observed by fluorescence microscopy. Kassoc values are taken from Table 2-1 and are expressed in M^−1.

[4] = 2 μM AO, caffeine 5 mM, dsDNA 2 mM where present, λex 485 nm, λem 530 nm
[5] = Xanthine/AO molar ratio 5000:1, exposure 10 min
[6] = molar ratio 50:1, exposure 10 sec
[7] = molar ratio 50:1, exposure 1 min
[8] = molar ratio 50:1, exposure 10 min
[9] = molar ratio 500:1, exposure 10 sec
[10] = molar ratio 500:1, exposure 1 min
[11] = molar ratio 500:1, exposure 10 min
[12] = molar ratio 2500:1, exposure 10 sec
[13] = molar ratio 2500:1, exposure 1 min
[14] = molar ratio 2500:1, exposure 10 min
[15] = molar ratio 5000:1, exposure 10 sec
[16] = molar ratio 5000:1, exposure 1 min

Q: What does the source list for `CN(C)c1ccc2cc3ccc(N(C)C)cc3nc2c1.Cl` [AO, 3,6-bis[dimethylamino]acridine hydrochloride]?
A: Fluorescence With NaCl [150 mM] Mean ± S.E. [1, 4]: 635.5 ± 17.7 (B); Fluorescence Without NaCl Mean ± S.E. [1, 4]: 514.0 ± 6.5 (A) ^

Q: With `Cn1c(=O)c2c(ncn2C)n(C)c1=O` [1,3,7-trimethyl xanthine (caffeine), 1,3,7-trimethyl xanthine] as the compound, how does the “blocking of AO intercalation” value [2, 5] read?
A: 1

Q: And the “blocking of AO intercalation” value [2, 6]?
A: 0

Q: And the “blocking of AO intercalation” value [2, 7]?
A: 0

Q: What about the “blocking of AO intercalation” value [2, 8] of the same compound?
A: 0

Q: What about the “blocking of AO intercalation” value [2, 9] of the same compound?
A: 2

Q: And the “blocking of AO intercalation” value [2, 10]?
A: 0

Q: What about the “blocking of AO intercalation” value [2, 11] of the same compound?
A: 0

Q: And the “blocking of AO intercalation” value [2, 12]?
A: 2

Q: And the “blocking of AO intercalation” value [2, 13]?
A: 1

Q: And the “blocking of AO intercalation” value [2, 14]?
A: 0

Q: What about the “blocking of AO intercalation” value [2, 15] of the same compound?
A: 3

Q: What about the “blocking of AO intercalation” value [2, 16] of the same compound?
A: 2

Q: And the “increase of fluorescence of 2 μM AO at 530 nm by addition” value ([1]; 2 mM DNA or 5 mM CAF, without NaCl)?
A: 29%

Q: What about the “increase in fluorescence intensity of AO by addition” value ([1]; DNA or CAF in the presence of 150 mM NaCl) of the same compound?
A: 36%

Q: What about the “Nuclear color, Stain” value ([3]; AO [5 μM] 30 minutes) of the same compound?
A: Green

Q: And the “Nuclear color, Re-stain” value ([3]; AO [5 μM])?
A: Green

Q: What about the “Nuclear color, After Rinse” value ([3]; AO [5 μM]) of the same compound?
A: None

Q: And the “Nuclear color, Stain” value ([3]; AO [5 mM] 30 minutes)?
A: Red

Q: And the “Nuclear color, Re-stain” value ([3]; AO [5 mM])?
A: Red

Q: What about the “Nuclear color, After Rinse” value ([3]; AO [5 mM]) of the same compound?
A: Red-

Q: For `Cn1c(=O)c2[nH]cnc2n(C)c1=O.NCCN` [1,3-dimethyl xanthine ethylenediamine], which “blocking of AO intercalation” value [2, 5] is on record?
A: 3

Q: What about the “blocking of AO intercalation” value [2, 6] of the same compound?
A: 0

Q: What about the “blocking of AO intercalation” value [2, 7] of the same compound?
A: 0

Q: What about the “blocking of AO intercalation” value [2, 8] of the same compound?
A: 0

Q: And the “blocking of AO intercalation” value [2, 9]?
A: 2

Q: What about the “blocking of AO intercalation” value [2, 10] of the same compound?
A: 2

Q: What about the “blocking of AO intercalation” value [2, 11] of the same compound?
A: 0

Q: What about the “blocking of AO intercalation” value [2, 12] of the same compound?
A: 3

Q: And the “blocking of AO intercalation” value [2, 13]?
A: 2

Q: What about the “blocking of AO intercalation” value [2, 14] of the same compound?
A: 1

Q: And the “blocking of AO intercalation” value [2, 15]?
A: 3

Q: And the “blocking of AO intercalation” value [2, 16]?
A: 3

Q: What about the “effect of xanthine rinse on fluorescence of AO stained nuclear chromatin” value ([3]; 50 mM xanthine rinse) of the same compound?
A: removal of most, if not all, green and red color

Q: And the “Nuclear color, Stain” value ([3]; AO [5 μM] 30 minutes)?
A: Green

Q: And the “Nuclear color, Re-stain” value ([3]; AO [5 μM])?
A: Green

Q: And the “Nuclear color, After Rinse” value ([3]; AO [5 μM])?
A: None

Q: What about the “Nuclear color, Stain” value ([3]; AO [5 mM] 30 minutes) of the same compound?
A: Red

Q: What about the “Nuclear color, Re-stain” value ([3]; AO [5 mM]) of the same compound?
A: Red

Q: And the “Nuclear color, After Rinse” value ([3]; AO [5 mM])?
A: None
